Experimental data from PMC11380953, “Multivalent, calcium-independent binding of surfactant protein A and D to sulfated glycosaminoglycans of the alveolar epithelial glycocalyx” (American Journal of Physiology - Lung Cellular and …, 2024).

Experiments:
human SP-A [1] = tested on: human SP-A; set-up: method as in Haurum et al.; [41]; settings: ref Haurum et al., [41], read-out: IC50 mean ±SD; cited from earlier work
human SP-D = tested on: human SP-D; set-up: method as in Lu et al.; [19]; settings: ref Lu et al., [19]; cited from earlier work
[2] = target: T1, rhSP-D (human recombinant SP-D) (Homo sapiens, UniProt P35247); assay: Microscale thermophoresis (MST) binding to rhSP-D; settings: apparent KD at protein 9 nM, 25°C, read-out: KD (MST Measurements) ±Kd confidence
T1 construct: host or cells: CHO cells
T1 sequence (P35247 21-375): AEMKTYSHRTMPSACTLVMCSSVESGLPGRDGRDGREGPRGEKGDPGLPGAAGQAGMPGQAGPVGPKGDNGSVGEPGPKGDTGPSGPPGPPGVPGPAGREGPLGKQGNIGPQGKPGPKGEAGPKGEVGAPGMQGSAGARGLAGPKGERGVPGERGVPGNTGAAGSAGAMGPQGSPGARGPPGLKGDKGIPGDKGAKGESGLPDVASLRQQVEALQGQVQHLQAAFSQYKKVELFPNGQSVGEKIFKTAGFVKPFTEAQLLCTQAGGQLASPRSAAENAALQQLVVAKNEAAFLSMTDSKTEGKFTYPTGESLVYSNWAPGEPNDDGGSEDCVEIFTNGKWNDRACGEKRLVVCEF
Description: (§1) Human-isolated and recombinant proteins were labeled using the Monolith Protein Labeling Kit RED-NHS according to the manufacturer’s instructions. This kit reagent reacts with lysine residues present in the sequence of the protein, as the dye carries a reactive NHS-ester group. Briefly, as all the proteins were in a Tris buffer solution, the buffer solution was exchanged to a HEPES-based buffer with the A-Column provided in the kit. Then, 10 µM solution of protein was incubated with a threefold excess of dye in 100 µL for 30 min at room temperature protected from light. The labeled protein was separated from the free dye using the B-Column provided in the kit. The concentration of the labeled protein {c(M) = [A205 − (A650 × 0.19)]/[31 × MWprotein]) and the degree of labeling [DOL = A650/(195.000 M^−1cm^−1 × c(M)] were calculated according to the manufacturer’s instruction, measuring absorption at 205 nm (for the protein) and 650 nm (for the dye).
(§2) Thermophoresis is the phenomenon of movement of particles along a temperature gradient. Solvated molecules move from higher to lower temperature. This movement or depletion of molecules from the heat is quantified by the Soret coefficient ST: Chot/Ccold = exp (−STΔT). The depletion of molecules depends on the interface between molecule and solvent. Therefore, thermophoresis monitors changes in size, charge, and solvation entropy of molecules. In this regard, the thermophoresis or movement of a protein is different from a protein-ligand complex ([35]). Microscale or miniaturized thermophoresis allows to monitor molecular interaction in only a few microliters. For this method, the fluorescently labeled protein is mixed with a decreasing concentration of a ligand in 16 glass capillaries. The initial fluorescence is measured (Fcold), then an infrared (IR) laser beam is switched on and focused on the center of the first capillary, where the temperature gradient is created from the center to the walls of the capillary. At the same time, a dichroic mirror allows fluorescence from the labeled protein to be monitored (Fhot). The rate of fluorescence change is related to the amount of protein-ligand complex form, which depends on the ligand concentration, due to changes in size, charge, or hydration shell of the protein-ligand complex. The dissociation constant KD is calculated from the binding curve derived by plotting the normalized fluorescence (FNorm) at a given time after the start of the thermophoresis against the respective ligand concentration ([33], [34], [36]).
(§3) Samples were measured in a Monolith NT.115, using Premium Capillaries (MO-K025) and Monolith Protein labeling kit RED-NHS (MO-L011) all from NanoTemper Technologies (Munich, Germany). Solutions of a 3X concentrated MST buffer (15 mM Tris, 300 mM NaCl, 0.3% Tween 20, 15 mM CaCl2, pH 7.4), sugars (270 mM) or GAG (30 µM) solution, and protein solution (27 nM) were prepared separately. When a different concentration was used, a threefold concentration of the solution was prepared. Afterward, sugars and GAG solutions were diluted 1:2 with water in a series of 16 steps. For the measurement, 3 µL of each prepared component (3 µL MST buffer, 3 µL GAG solution, and 3 µL labeled protein) was mixed, centrifuged shortly to eliminate precipitates, and loaded into a glass capillary. The final concentrations of the sugars were thus between 90 –and 0.00275 mM or GAGs 10 and 0.000305 µM for GAGs, respectively. The 16 capillaries were loaded in the Monolith NT.115 and measurements were performed with a 40% LED power and medium MST power at 25°C.
(§4) Every set of 16 capillaries was prepared in 3–6 replicates (technical replicates) and measured. The replicate measures of every capillary were plotted against concentration and outliers were excluded, using the MO Affinity Analysis 3 v01 software (NanoTemper Technologies, Munich, Germany). […]

[3] = target: T2, hSP-A (human SP-A, isolated from BAL of PAP patient) (Homo sapiens, UniProt Q8IWL1+Q8IWL2); assay: Microscale thermophoresis (MST) binding to hSP-A; settings: for Kd: hSP-A, apparent KD at protein 9 nM, 25°C, read-out: KD (MST Measurements) ±Kd confidence
T2 construct: Human PAP patient, BAL isolated; from tissue; host or cells: bronchoalveolar lavage fluid of a patient with pulmonary alveolar proteinosis
Description: as §1, §2, §3, §4

recombinant human SP-D = tested on: recombinant human SP-D; set-up: method as in van Eijk et al.; [42]; settings: ref van Eijk et al., [42], read-out: IC50 mean ± SE; cited from earlier work
[4] = tested on: recombinant construct containing the N-terminal tagged fusion protein +neck and CRD of human SP-D; set-up: method as in Crouch et al. 2006 [47]; settings: ref Crouch et al. 2006 [47], read-out: I50 mean ± SE; cited from earlier work
human SP-A [5] = tested on: human SP-A; set-up: method as in Haagsman et al.; [18]; settings: ref Haagsman et al., [18]; cited from earlier work

T2 sequence (Q8IWL2 21-248): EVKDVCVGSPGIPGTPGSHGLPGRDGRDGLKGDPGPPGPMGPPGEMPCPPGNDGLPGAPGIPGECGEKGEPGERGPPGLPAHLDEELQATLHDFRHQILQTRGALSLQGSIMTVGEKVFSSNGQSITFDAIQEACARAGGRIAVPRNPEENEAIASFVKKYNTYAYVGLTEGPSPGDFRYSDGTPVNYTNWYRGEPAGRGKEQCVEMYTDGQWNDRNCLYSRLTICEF
T2 sequence (Q8IWL1 21-248): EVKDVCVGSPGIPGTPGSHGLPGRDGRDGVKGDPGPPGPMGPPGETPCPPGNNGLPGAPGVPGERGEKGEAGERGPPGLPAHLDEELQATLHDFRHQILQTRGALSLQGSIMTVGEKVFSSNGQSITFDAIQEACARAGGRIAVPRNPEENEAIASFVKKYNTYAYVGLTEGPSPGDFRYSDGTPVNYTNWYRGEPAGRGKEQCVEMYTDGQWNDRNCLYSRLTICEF

Kd [2] [mM] | Kd [3] [mM] | binding of hSP-A to sugar, calcium dependence ([3]; MST, 0-10 mM calcium, 0-20 mM EDTA (Fig. 1D, E)) | SMILES | IC50 (human SP-A [1]) [mM] | IC50 (human SP-D) [mM] | IC50 (recombinant human SP-D) [mM] | IC50 [4] [mM] | Amount of SP-A bound (human SP-A [5]) [%]
0.45 | 0.03 |  | OC[C@H]1O[C@H](O[C@H]2[C@H](O)[C@@H](O)[C@H](O)O[C@@H]2CO)[C@H](O)[C@@H](O)[C@@H]1O [Maltose, D(+)-maltose] | 23 ± 5 | 5.1 | 4.1 ± 0.9 | 2.7 ± 0.4 | 
5.39 | 0.06 |  | CC(=O)N[C@@H]1C(O)O[C@H](CO)[C@@H](O)[C@@H]1O (stereo partly drawn) [ManNAc, N-acetyl-D-mannosamine monohydrate] | 8 ± 1 |  | 1.8 ± 0.3 | 2.1 ± 0.4 | 
0.13 | 0.16 |  | CC(=O)N[C@@H]1[C@@H](O)[C@H](O)[C@@H](CO)O[C@@H]1O [GlcNAc, N-acetyl-D-glucosamine] |  | 28.5 | 13.5 ± 4.5 | 14 ± 2 | 2
0.37 | 4.07 |  | C[C@H](O)[C@@H](O)[C@@H](O)[C@H](O)C=O [Fuc, L-fucose] | 22 ± 1 | 6.5 | 4.4 ± 0.1 |  | 100
0.82 | 1.94 | only seen in the presence of calcium | O=C[C@H](O)[C@@H](O)[C@@H](O)[C@H](O)CO [Gal, D(+)-galactose] |  | 22 | 7.9 ± 3.8 | 10 ± 2 | 100
0.005 | 0.09 |  | O=C[C@H](O)[C@@H](O)[C@H](O)[C@H](O)C(=O)O [GlcAc, D-glucuronic acid] |  |  |  |  | 
0.39 | 7.27 |  | CC(=O)N[C@H]1C(O)O[C@H](CO)[C@H](O)[C@@H]1O (stereo partly drawn) [GalNAc, N-acetyl-D-galactosamine] |  |  |  |  | 7
0.27 | 0.21 |  | CC(=O)N[C@H]1[C@H]([C@H](O)[C@H](O)CO)OC(O)(C(=O)O)C[C@@H]1O (stereo partly drawn) [Neu5Ac, N-acetyl-neuraminic acid] |  |  |  |  | 

SMILES | Kd [2] [mM] | Kd [3] [mM] | binding of hSP-A to sugar, calcium dependence ([3]; MST, 0-10 mM calcium, 0-20 mM EDTA (Fig. 1D, E)) | IC50 (human SP-A [1]) [mM] | IC50 (human SP-D) [mM] | IC50 (recombinant human SP-D) [mM] | IC50 [4] [mM] | Amount of SP-A bound (human SP-A [5]) [%]
OC[C@H]1OC(O)[C@@H](O)[C@@H](O)[C@@H]1O (stereo partly drawn) [Man, D(+)-mannose] | 0.02 | 0.14 |  | 39 ± 3 | 7.5 | 2.9 ± 0.4 | 5.3 ± 0.5 | 95 ± 10
OC[C@@H]1OC(O)[C@@H](O)[C@H](O)[C@H]1O (stereo partly drawn) [Glc, L(−)-glucose] | 0.12 | 1.39 |  | 30 ± 1 | 9.6 | 4 ± 1 | 4.1 ± 0.9 | 100
